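Cultured in 96-well plates, cells were exposed to test compound for 48 hours across five concentrations. Abbreviation: GI50, concentration required for 50% inhibition of growth.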 Active and inactive are the calls of the source. Rule as the data show it: active = GI50 up to about 1.1 µM and inactive = higher.
Assays:
Assay in all cases: growth of human tumour cells (NCI), 48 h
[1] = system: Hs-578T
[2] = system: HCT-116
[3] = system: ACHN
[4] = system: OVCAR-8
[5] = system: MDA-MB-231
[6] = system: SF-539
[7] = system: NCI-H226
[8] = system: CAKI-1
[9] = system: Malme-3M
[10] = system: BT-549
[11] = system: RXF 393
[12] = system: NCI/ADR-RES
[13] = system: M14
[14] = system: HCC 2998
[15] = system: DU-145
[16] = system: SK-MEL-28
[17] = system: HOP-92
[18] = system: K562
[19] = system: CCRF-CEM
[20] = system: SN12C

Measured: GI50

Cc1cs/c(=N/c2ccccc2)n1CCC(O)(P(=O)(O)O)P(=O)(O)O
inactive: [1] > 100 µM | [2] > 100 µM | [3] 67.3 µM | [4] > 100 µM | [5] > 100 µM | [6] > 100 µM | [7] > 100 µM | [8] > 100 µM | [9] > 100 µM | [10] > 100 µM | [11] > 100 µM | [12] > 100 µM | [13] > 100 µM | [14] > 100 µM | [15] > 100 µM

CCOC(=O)[C@@H]1[C@@H](c2ccccc2)N(C)O[C@@]1(c1ccccc1)C(F)(F)F
inactive: [1] > 100 µM | [16] 85.9 µM | [2] 36.5 µM | [3] 44.8 µM | [17] > 100 µM | [4] > 100 µM | [5] > 100 µM | [7] 23.1 µM | [8] > 100 µM | [9] 44.2 µM | [18] > 10 µM | [10] > 100 µM | [19] 20.1 µM | [11] 40.2 µM | [12] > 100 µM | [20] > 100 µM | [13] 31 µM | [15] > 100 µM

CCCCCCCCCCCCC(=O)NCC(=O)NC(Cc1ccccc1)C(=O)Oc1ccc([N+](=O)[O-])cc1 (stereo not given)
inactive: [1] 75.3 µM | [2] 30.9 µM | [3] > 100 µM | [4] 48.2 µM | [5] 48.4 µM | [6] 91.8 µM | [7] 33.5 µM | [8] > 100 µM | [10] 44.9 µM | [19] 29.4 µM | [11] 91.4 µM | [12] 57.1 µM | [20] 70.1 µM | [13] 49.1 µM | [14] 44.4 µM | [15] > 100 µM

Cc1nc2ccccc2c(=O)n1NC(=S)Nc1ccc(Cl)cc1[N+](=O)[O-]
inactive: [1] > 100 µM | [16] > 100 µM | [2] > 100 µM | [3] > 100 µM | [17] > 100 µM | [4] > 100 µM | [5] > 100 µM | [6] > 100 µM | [7] > 10 µM | [8] > 100 µM | [9] > 100 µM | [18] > 100 µM | [10] > 100 µM | [19] > 100 µM | [11] > 100 µM | [12] > 100 µM | [20] > 100 µM | [13] > 100 µM | [15] > 100 µM

O=c1c(-c2ccc(O)cc2)coc2cc(OC3OC(CO)C(O)C(O)C3O)cc(O)c12 (stereo not given)
inactive: [1] 61.1 µM | [16] > 10 µM | [2] > 100 µM | [3] 54.5 µM | [4] > 100 µM | [5] > 100 µM | [6] 31.1 µM | [7] > 100 µM | [8] 60.4 µM | [9] > 10 µM | [18] > 10 µM | [10] 58.5 µM | [19] 38.8 µM | [11] 40 µM | [12] > 10 µM | [20] > 100 µM | [13] > 10 µM | [14] > 100 µM | [15] > 100 µM

O=C(O[C@H]1CCN2C[C@H]3C[C@H](CN4C(=O)CCC[C@H]34)[C@@H]2C1)c1ccc(O)cc1
inactive: [1] > 100 µM | [16] > 100 µM | [2] > 100 µM | [3] > 100 µM | [17] > 100 µM | [4] > 100 µM | [5] > 100 µM | [6] > 100 µM | [7] > 100 µM | [8] > 100 µM | [9] > 100 µM | [18] > 100 µM | [10] > 100 µM | [19] > 100 µM | [11] > 100 µM | [20] > 100 µM | [13] > 100 µM | [14] > 100 µM | [15] > 100 µM

c1nncn1C12C3C4C5C3C1C5C42 (stereo not given)
inactive: [1] > 100 µM | [16] > 100 µM | [2] > 100 µM | [3] > 100 µM | [4] > 100 µM | [5] > 100 µM | [6] > 100 µM | [7] > 100 µM | [18] > 100 µM | [10] > 100 µM | [19] > 100 µM | [12] > 100 µM | [20] > 100 µM | [14] > 100 µM | [15] > 100 µM

c1ccc([B-]2(c3ccccc3)OCCc3cccc[n+]32)cc1
inactive: [1] 37.7 µM | [16] 47.8 µM | [2] 35 µM | [3] 37.9 µM | [17] 28.2 µM | [4] 75 µM | [5] 84.5 µM | [6] 28.5 µM | [7] 50.1 µM | [8] 33 µM | [9] 42.4 µM | [18] > 100 µM | [10] 31.6 µM | [19] 23.4 µM | [11] 33.3 µM | [12] 59 µM | [20] 59.3 µM | [13] 36.2 µM | [15] 88.1 µM
